{
  "source": "patent US9675591B2",
  "about": "“Methods for treating seizure disorders and pain” (THE REGENTS OF THE UNIVERSITY OF CALIFORNIA, priority 2013, dated 2017)",
  "key": {"[1]": {"assay": "Pharmacokinetics in Sprague-Dawley rats", "format": "in vivo"}, "[2]": {"system": "formalin-induced pain", "assay": "Formalin pain assay", "format": "in vivo, mice", "conditions": "5 mg/kg", "procedure": "SKA-19 was administered at a dose of 5 mg/kg to CF-1 male mice. At the previously determined time of peak anticonvulsant effect 0.5% formalin was injected sub-dermally into the plantar surface of the right hind foot. For each animal the amount of time (s) spent licking the affected hind paw in a two minute period was recorded at 5 minute intervals and continued for 45 minutes through both the acute and inflammatory phase."}, "[3]": {"system": "mechanical allodynia", "assay": "Pain assay, partial ligation of the sciatic nerve (Von Frey)", "format": "in vivo, rats", "conditions": "5 mg/kg, 2 hour time point", "procedure": "Rats were anesthetized with sodium pentobarbital, the upper thigh shaved and wiped off with ethanol and betadine. A small incision was made in the skin and the underlying muscle separated to expose the sciatic nerve. Approximately ⅓ to ½ of the nerve was tied off by passing a needle (7.0) and nylon suture through the nerve. The muscle and skin incision were afterwards closed off and the animals kept warm until they had recovered from the anesthesia. This procedure was performed on the right side (ipsilateral) while a sham surgery exposing but not ligating the nerve was performed on the left hind leg (contralateral). After 7 days of recovery animals were tested for the development of mechanical allodynia (abnormal response to a non-noxious stimulus) by putting them in a bottomless plexiglass box placed on a wire mesh (¼″) platform. After 30-60 min of acclimatization a baseline mechanical sensitivity was determined by applying a series of calibrated Von Frey fibers perpendicularly to the plantar surface of each hind paw and holding it there for about 6 s with enough force to slightly bend the fiber. […] This was repeated until a 50% threshold for withdrawal could be determined. The allodynic threshold was then redetermined after i.p. application of SKA-19 at 5 mg/kg at the time-to-peak effect determined in the acute seizure models."}, "[4]": {"system": "cultured hippocampal neurons", "assay": "Synchronous intracellular Ca2+ oscillations (FLIPR)", "format": "cell-based, mouse", "conditions": "for effect on picrotoxin (PTX) induced Ca2+ oscillations: added 10 min before PTX", "procedure": "Animals were treated humanely and with regard for alleviation of suffering according to protocols approved by the Institutional Animal Care and Use Committee of the University of California, Davis. Hippocampal neuron cultures were dissociated from hippocampi dissected from C57Bl/6J mouse pups at postnatal day 0-1 and maintained in Neurobasal complete medium (Neurobasal medium supplemented with NS21, 0.5 mM L-glutamine, HEPES) with 5% fetal bovine serum. For Ca^2+ imaging studies using FLIPR, dissociated hippocampal cells were plated onto poly-L-lysine coated clear-bottom, black wall, 96-well imaging plate (BD, Franklin Lakes, N.J., USA) at a density of 0.8×10^5/well. The medium was changed twice a week by replacing half the volume of culture medium in the well with serum-free Neurobasal complete medium. The neurons were maintained at 37° C. with 5% CO2 and 95% humidity.\nHippocampal neurons 14-17 DIV were used for simultaneous measurements of intracellular Ca^2+ transients in all wells of a 96-well plate as described previously (Cao et al., 2012). After aspiration, the cells were incubated with 4 μM Fluo-4 in Locke's buffer containing 0.5 mg/ml bovine serum albumin for 1 h at 37° C. The plates were then transferred to the FLIPR (Molecular Devices, Sunnyvale, Calif., USA) cell plate stage. After 4 min of baseline recordings, Ca^2+ signals were then recorded for 10 min in the presence or absence of SKA-19 followed by addition of the Ca^2+ enhancing agents 4-AP or PTX, and the intracellular Ca^2+ concentration ([Ca^2+]i) was monitored for an additional 30 min. Ca^2+-enhancing agents triggered an immediate rise in [Ca^2+]i that was quantified by determining the area under the curve of the Fluo-4 arbitraiy fluorescence units for a duration of 5 min following agent addition.\nHippocampal neurons between 13-17 days in vitro (DIV) were used to investigate how Ca^2+ enhancing agent alters synchronous Ca^2+ oscillations that normally occur in healthy neurons at this developmental stage. This method permits simultaneous measurements of intracellular Ca^2+ transients in all wells of a 96-well plate as described previously (Cao et al., 2012). Baseline recordings were acquired in Locke's buffer (8.6 mM HEPES, 5.6 mM KCl, 154 mM NaCl, 5.6 mM glucose, 1.0 mM MgCl2, 2.3 mM CaCl2, and 0.0001 mM glycine, pH 7.4) for 10 min in presence or absence of SKA-19 followed by addition of the Ca^2+ enhancing agents 4-aminopyridine (4-AP) or picrotoxin using a programmable 96-channel pipetting robotic system, and the intracellular Ca^2+ concentration ([Ca^2+]i) was monitored for an additional 30 min. Unless otherwise indicated, pharmacological interventions were introduced 10 min prior to Ca^2+ enhancing agent. Ca enhancing agent triggered an immediate rise in [Ca^2+]i that was quantified by determining the area under the curve (AUC) of the Fluo-4 arbitrary fluorescence units for a duration of 5 min following Ca^2+ enhancing agent addition. Ca^2+ enhancing agent also altered the frequency and amplitude of neuronal synchronous Ca^2+ oscillations, which were analyzed during the 10 min period after addition of Ca^2+ enhancing agent […]."}, "[5]": {"target": "KCa2.1 (Homo sapiens (Human), UniProt Q92952)", "assay": "Whole-cell patch-clamp, KCa2.1", "format": "cell-based", "procedure": "(§1) HEK-293 or COS-7 cells stably expressing hKCa2.1, rKCa2.2, and hKCa2.3 have been described previously (Sankaranarayanan et al., 2009). Cells were held at −80 mV and KCa currents elicited by dialysis with a K^+ aspartate based internal containing 250 nM free Ca^2+ (pH 7.2, 290 mOsm, pipette resistance 1.5 MΩ). To reduce currents from native chloride channels, Na^+ aspartate Ringer was used as an external solution. KCa2 currents were recorded with 200-ms voltage ramps from −120 to +40 mV applied every 10 s, and the fold increase of slope conductance at −80 mV by drug was taken as a measure of channel activation. Data analysis, fitting, and plotting were performed with IGOR-Pro (Wavemetrics, Lake Oswego, Oreg., USA) and Origin 9.0 (OriginLab, Northampton, Mass., USA)."}, "[6]": {"target": "KCa2.3 (SK3) (Homo sapiens (Human), UniProt Q9UGI6)", "assay": "Whole-cell patch-clamp, KCa2.3", "format": "cell-based", "conditions": "250 nM free intracellular Ca2+; read-out: EC50 or IC50, KCa2.3", "procedure": "as §1"}},
  "note": "Entries after “also recorded” stand apart in the source; their conditions may differ. Like-named read-outs stand apart in the source and are kept apart here.",
  "data": [
    {"compound": "Nc1nc2ccc(SC(F)(F)F)cc2s1", "note": "[SKA-19, 6-((trifluoromethyl)thio)benzo[d]thiazol-2-amine]", "values": [
      {"measurement": "oral availability", "setting": "[1]; 10 mg/kg, both vehicles (solution and methylcellulose suspension)", "result": "roughly 30%"},
      {"measurement": "penetration into tissues (brain, heart, spleen, liver)", "setting": "[1]; 2 h after i.p. 10 mg/kg", "result": "very effective at penetrating into tissues"},
      {"measurement": "peak plasma concentration", "setting": "[1]; gavage 10 mg/kg, suspension in methylcellulose", "result": "1.6 ± 0.6", "unit": "µM"},
      {"measurement": "Kp at 2 h", "setting": "[1]; male, Sprague-Dawley, rat, brain, ip, 10 mg/kg i.p., 2 h, read-out: brain to plasma concentration ratio", "result": "~3"},
      {"measurement": "concentration at 2 h", "setting": "[1]; male, Sprague-Dawley, rat, plasma, intraperitoneal, 10 mg/kg i.p., 2 h, read-out: plasma concentration", "result": "4.6 ± 1.3", "unit": "µM"},
      {"measurement": "concentration at 2 h", "setting": "[1]; male, Sprague-Dawley, rat, plasma, intraperitoneal, 30 mg/kg i.p., 2 hours, read-out: total plasma concentration", "result": "12 ± 2.21", "unit": "µM"},
      {"measurement": "concentration at 4 h", "setting": "[1]; male, Sprague-Dawley, rat, plasma, intraperitoneal, 30 mg/kg i.p., 4 hours, read-out: total plasma concentration", "result": "13.1 ± 2.67", "unit": "µM"},
      {"measurement": "half-life", "setting": "[1]; male, Sprague-Dawley, rat, plasma, iv, 10 mg/kg, rats, i.v. 10 mg/kg in cremophor EL/PBS, read-out: elimination half-life t1/2 (converted)", "result": 2.2, "unit": "h"},
      {"measurement": "concentration at 8 h", "setting": "[1]; male, Sprague-Dawley, rat, plasma, oral solution 10 mg/kg, at 8 h", "result": 0.4, "unit": "µM"},
      {"measurement": "oral availability", "setting": "[1]; methylcellulose suspension as used by the ASP", "result": "about 50%"},
      {"measurement": "plasma concentration", "setting": "[1]; oral solution 10 mg/kg, for 5 h", "result": "around 1 μM"},
      {"measurement": "sedation", "setting": "[1]; rats, 30 mg/kg i.p., recovered without weight loss at 24 h", "result": "prolonged sedation"},
      {"measurement": "elimination half-life t1/2", "setting": "[1]; rats, i.v. 10 mg/kg in cremophor EL/PBS", "result": "2.16 ± 0.023", "unit": "h"},
      {"measurement": "reduction of paw licking (area under curve), Phase II", "setting": "[2]; 2 hours prior to formalin", "result": 31.3, "unit": "%"},
      {"measurement": "reduction of total paw licking (area under curve), Phase I", "setting": "[2]; 2 hours prior to formalin", "result": 54.5, "unit": "%"},
      {"measurement": "time spent licking the affected hindpaw", "setting": "[2]; 2 h prior to formalin", "result": "significantly decreased"},
      {"measurement": "withdrawal threshold (Von Frey)", "setting": "[3]", "result": "significantly increased"},
      {"measurement": "effect on spontaneous Ca2+ oscillations", "setting": "[4]; SKA-19 1 μM or less", "result": "did not significantly inhibit; also recorded: no effect"},
      {"measurement": "effect on spontaneous Ca2+ oscillations", "setting": "[4]; SKA-19 3 μM or more", "result": "completely eliminated"},
      {"measurement": "effect on 4-AP induced initial Ca2+ rise and oscillations", "setting": "[4]; added 10 min before 4-AP", "result": "potently suppressed; also recorded: inhibited"},
      {"measurement": "effect on picrotoxin (PTX) induced Ca2+ oscillations", "setting": "[4]", "result": "potently suppressed"},
      {"measurement": "effect on picrotoxin (PTX) induced Ca2+ oscillations", "setting": "[4]; listed as SKA-10", "result": "inhibited"},
      {"measurement": "EC50", "setting": "[5]; 250 nM free intracellular Ca2+, read-out: EC50 or IC50, KCa2.1", "result": "> 100", "unit": "µM"},
      {"measurement": "effect on KCa2.1 currents", "setting": "[5]; 100 and 200 μM", "result": "very weak effects"},
      {"measurement": "EC50", "setting": "[6]", "result": 15, "unit": "µM"}
    ]}
  ]
}
